Test results as given in ChEMBL document CHEMBL1144426, “Adenosine kinase inhibitors. 4. 6,8-Disubstituted purine nucleoside derivatives. Synthesis, conformation, and enzyme inhibition” (J Med Chem, 2005).

What follows are molecules tested against Adenosine kinase (Homo sapiens, UniProt P55263) (assay: Inhibitory activity against Human Recombinant Adenosine Kinase).
Adenosine kinase, sequence (P55263 whole entry): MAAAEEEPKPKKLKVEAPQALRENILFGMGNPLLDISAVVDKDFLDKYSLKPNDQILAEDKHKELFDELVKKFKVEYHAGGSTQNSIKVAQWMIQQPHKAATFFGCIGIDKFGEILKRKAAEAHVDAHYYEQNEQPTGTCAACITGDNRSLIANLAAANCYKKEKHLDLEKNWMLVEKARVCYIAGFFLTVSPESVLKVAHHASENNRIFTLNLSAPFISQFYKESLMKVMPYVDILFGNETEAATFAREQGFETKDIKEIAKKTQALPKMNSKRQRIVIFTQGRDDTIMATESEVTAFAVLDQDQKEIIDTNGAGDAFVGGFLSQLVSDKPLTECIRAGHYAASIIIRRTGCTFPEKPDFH

SMILES | IC50 [nM]
OC[C@H]1O[C@@H](n2c(N3CCc4ccccc43)nc3c(N4CCc5ccccc54)ncnc32)[C@H](O)[C@@H]1O | 2000
OC[C@H]1O[C@@H](n2c(Nc3ccccc3)nc3c(Nc4ccccc4)ncnc32)[C@H](O)[C@@H]1O | 90
C[C@H]1O[C@@H](n2cc(-c3ccccc3)c3c(N4CCc5ccccc54)ncnc32)[C@H](O)[C@@H]1O | 51
C#Cc1nc2c(N3CCc4ccccc43)ncnc2n1[C@@H]1O[C@H](CO)[C@@H](O)[C@H]1O | 1000
CSc1nc2c(N3CCc4ccccc43)ncnc2n1[C@@H]1O[C@H](CO)[C@@H](O)[C@H]1O | 150
OC[C@H]1O[C@@H](n2c(-c3ccco3)nc3c(Nc4ccccc4)ncnc32)[C@H](O)[C@@H]1O | 6900
OC[C@H]1O[C@@H](n2c(I)nc3c(N4CCc5ccccc54)ncnc32)[C@H](O)[C@@H]1O | 1000
OC[C@H]1O[C@@H](n2c(I)nc3c(Nc4ccccc4)ncnc32)[C@H](O)[C@@H]1O | 4500
CCc1nc2c(N3CCc4ccccc43)ncnc2n1[C@@H]1O[C@H](CO)[C@@H](O)[C@H]1O | 230
C[C@H]1O[C@@H](n2c(Nc3ccccc3)nc3c(N4CCc5ccccc54)ncnc32)[C@H](O)[C@@H]1O | 200
OC[C@H]1O[C@@H](n2cnc3c(N4CCc5ccccc54)ncnc32)[C@H](O)[C@@H]1O | 500
OC[C@H]1O[C@@H](n2c(Nc3ccccc3)nc3c(N4CCc5ccccc54)ncnc32)[C@H](O)[C@@H]1O | 19
C=Cc1nc2c(Nc3ccccc3)ncnc2n1[C@@H]1O[C@H](CO)[C@@H](O)[C@H]1O | 300
OC[C@H]1O[C@@H](n2c(N3CCc4ccccc43)nc3c(Nc4ccccc4)ncnc32)[C@H](O)[C@@H]1O | 7100
OC[C@H]1O[C@@H](n2c(Cl)nc3c(Nc4ccccc4)ncnc32)[C@H](O)[C@@H]1O | 3600
C=Cc1nc2c(N3CCc4ccccc43)ncnc2n1[C@@H]1O[C@H](CO)[C@@H](O)[C@H]1O | 60
OC[C@H]1O[C@@H](n2c(Cl)nc3c(N4CCc5ccccc54)ncnc32)[C@H](O)[C@@H]1O | 480
CSc1nc2c(Nc3ccccc3)ncnc2n1[C@@H]1O[C@H](CO)[C@@H](O)[C@H]1O | 1000
OC[C@H]1O[C@@H](n2c(-c3ccco3)nc3c(N4CCc5ccccc54)ncnc32)[C@H](O)[C@@H]1O | 2900
